Reference: US12297190B2, “Modulators of STING (stimulator of interferon genes)” (PFIZER INC., priority 2019, dated 2025)

Columns and labels:
STING [1] = molecular target: T1, STING (Homo sapiens, UniProt Q86WV6, G230A/H232R/R293Q/R71H); experiment: Phosphorylation of IRF3: THP-1 cell ELISA; type: cell-based; conditions: THP-1 cells, 3 hours incubation, phospho-IRF3 ELISA; read-out: THP-1 CELL P-IRF3 EC50
T1 construct: host or cells: THP-1 and THP-1 Lucia ISG cells
Summary of the method: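 THP-1 cells (10^4/well, seeded overnight) were treated with serially diluted compounds (final 0.5% DMSO) for 3 h. Lysates were analysed by sandwich ELISA (anti-IRF3 capture, anti-phospho-IRF3 detection, HRP luminescence). Signal was normalized as % effect between DMSO and a maximal STING agonist control.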

STING [2] = molecular target: T1, STING; experiment: Interferon-β induction: THP-1 Lucia ISG reporter cell line; type: cell-based; conditions: THP-1 Lucia ISG cells, 24 hours incubation, luciferase reporter; read-out: THP-1 Lucia ISG Cells IFN-β EC50
Summary of the method: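 THP-1 Lucia ISG cells (IRF-inducible secreted luciferase) treated 24 h with serially diluted compounds, final 0.5% DMSO, at 37 °C. Supernatant luminescence read with QUANTI-Luc, normalized to % effect between a maximal STING agonist positive control and DMSO.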

R232-STING = R232-STING (Homo sapiens, UniProt Q86WV6, H232R); experiment: biochemical
R232-STING, sequence (Q86WV6 155-341 H232R): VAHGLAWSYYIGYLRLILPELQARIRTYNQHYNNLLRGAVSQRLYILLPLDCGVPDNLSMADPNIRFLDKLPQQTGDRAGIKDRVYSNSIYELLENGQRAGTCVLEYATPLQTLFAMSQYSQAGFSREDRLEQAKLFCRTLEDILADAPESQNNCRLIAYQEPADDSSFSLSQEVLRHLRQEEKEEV

T1 sequence (Q86WV6 whole entry R71H/G230A/H232R/R293Q): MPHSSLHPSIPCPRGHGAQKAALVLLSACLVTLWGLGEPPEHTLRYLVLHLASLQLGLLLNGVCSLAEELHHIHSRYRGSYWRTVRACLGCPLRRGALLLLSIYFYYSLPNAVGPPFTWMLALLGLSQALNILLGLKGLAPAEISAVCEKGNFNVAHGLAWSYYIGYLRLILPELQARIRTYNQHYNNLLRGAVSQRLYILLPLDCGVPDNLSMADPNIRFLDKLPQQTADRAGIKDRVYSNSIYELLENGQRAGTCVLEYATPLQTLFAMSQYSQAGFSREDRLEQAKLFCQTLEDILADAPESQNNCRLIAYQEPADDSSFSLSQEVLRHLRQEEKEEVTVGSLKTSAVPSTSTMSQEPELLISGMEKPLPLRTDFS

| Compound | EC50 (STING [1]) [µM] | EC50 (STING [2]) [µM] | Ki (R232-STING) [µM] |
| --- | --- | --- | --- |
| CCn1nc(C)cc1-c1nnc(-c2cc(C(N)=O)cc3c2cnn3[C@@H]2CCNC2)[nH]1 [YY14, 4-[5-(1-ethyl-3-methyl-1H-pyrazol-5-yl)-4H-1,2,4-triazol-3-yl]-1-[(3R)-pyrrolidin-3-yl]-1H-indazole-6-carboxamide] | > 100 | > 100 | 0.484 |
| CCn1nc(C)cc1-c1nnc(-c2cc(C(N)=O)cc3c2cnn3CCCCC2CCNCC2)[nH]1 [YY15, 4-[5-(1-ethyl-3-methyl-1H-pyrazol-5-yl)-4H-1,2,4-triazol-3-yl]-1-[4-(piperidin-4-yl)butyl]-1H-indazole-6-carboxamide] | > 100 | > 100 | 0.329 |
| CCn1nc(C)cc1-c1nnc(-c2cc(C(N)=O)cc3c2cnn3Cc2nc3c(o2)CNC3)[nH]1 [YY16, 1-[(5,6-dihydro-4H-pyrrolo[3,4-d][1,3]oxazol-2-yl)methyl]-4-[5-(1-ethyl-3-methyl-1H-pyrazol-5-yl)-4H-1,2,4-triazol-3-yl]-1H-indazole-6-carboxamide] | > 100 | > 100 | 0.369 |
| CCn1nc(C)cc1-c1nnc(-c2cc(C(N)=O)cc3c2cnn3C2CC3(CCNC3)C2)[nH]1 (stereo not drawn) [YY17, 1-(6-azaspiro[3.4]octan-2-yl)-4-[5-(1-ethyl-3-methyl-1H-pyrazol-5-yl)-4H-1,2,4-triazol-3-yl]-1H-indazole-6-carboxamide] | > 100 | > 100 | 0.376 |
| CCn1nc(C)cc1-c1nnc(-c2cc(C(N)=O)cc3c2cc(C(=O)O)n3C)[nH]1 [YY19, 6-carbamoyl-4-[5-(1-ethyl-3-methyl-1H-pyrazol-5-yl)-4H-1,2,4-triazol-3-yl]-1-methyl-1H-indole-2-carboxylic acid] | > 100 | > 100 | 0.175 |
| Cc1cc(-c2n[nH]c(-c3cc(C(N)=O)cc4c3cnn4C(F)F)n2)n(CCC(=O)O)n1 [YY20, 3-(5-{5-[6-carbamoyl-1-(difluoromethyl)-1H-indazol-4-yl]-1H-1,2,4-triazol-3-yl}-3-methyl-1H-pyrazol-1-yl)propanoic acid] | > 100 | > 100 | 0.171 |
| Cc1cc(-c2n[nH]c(-c3c(F)c(C(N)=O)cc4c3cnn4C)n2)n(CCC(=O)O)n1 [YY21, 3-{5-[5-(6-carbamoyl-5-fluoro-1-methyl-1H-indazol-4-yl)-1H-1,2,4-triazol-3-yl]-3-methyl-1H-pyrazol-1-yl}propanoic acid] | > 100 | > 100 | > 0.891 |
| CCn1nc(C)cc1-c1n[nH]c(-c2cc(C(N)=O)cc3c2cnn3CCN2CCOC(C)C2)n1 (stereo not drawn) [YY22, 4-[3-(1-ethyl-3-methyl-1H-pyrazol-5-yl)-1H-1,2,4-triazol-5-yl]-1-[2-(2-methylmorpholin-4-yl)ethyl]-1H-indazole-6-carboxamide] | > 33.3 | > 33.3 | 0.491 |
| CCn1nc(C)cc1-c1n[nH]c(-c2cc(C(N)=O)cc3c2cnn3CCN2C3CCC2COC3)n1 [YY23, 4-[3-(1-ethyl-3-methyl-1H-pyrazol-5-yl)-1H-1,2,4-triazol-5-yl]-1-[2-(3-oxa-8-azabicyclo[3.2.1]octan-8-yl)ethyl]-1H-indazole-6-carboxamide] | > 33.3 | > 33.3 | 0.457 |
| CCn1nc(C)cc1-c1n[nH]c(-c2cc(C(N)=O)cc3c2cnn3CCN2CCO[C@@H](C)C2)n1 [YY24, 4-[3-(1-ethyl-3-methyl-1H-pyrazol-5-yl)-1H-1,2,4-triazol-5-yl]-1-{2-[(2S)-2-methylmorpholin-4-yl]ethyl}-1H-indazole-6-carboxamide] | > 33.3 | > 100 | 0.354 |
| CCn1nc(C)cc1-c1n[nH]c(-c2cc(C(N)=O)cc3c2cnn3CCN2CC3CCC2CO3)n1 (stereo not drawn) [YY25, 4-[3-(1-ethyl-3-methyl-1H-pyrazol-5-yl)-1H-1,2,4-triazol-5-yl]-1-[2-(2-oxa-5-azabicyclo[2.2.2]octan-5-yl)ethyl]-1H-indazole-6-carboxamide] | > 33.3 | > 33.3 | 0.212 |
| CCn1nc(C)cc1-c1n[nH]c(-c2cc(C(N)=O)cc3c2cnn3CCN2CCNC(=O)C2)n1 [YY26, 4-[3-(1-ethyl-3-methyl-1H-pyrazol-5-yl)-1H-1,2,4-triazol-5-yl]-1-[2-(3-oxopiperazin-1-yl)ethyl]-1H-indazole-6-carboxamide] | > 33.3 | > 33.3 | 0.195 |
| CCn1nc(C)cc1-c1n[nH]c(-c2cc(C(N)=O)cc3c2cnn3CCN2CCS(=O)(=O)CC2)n1 [YY27, 1-[2-(1,1-dioxo-1lambda~6~-thiomorpholin-4-yl)ethyl]-4-[3-(1-ethyl-3-methyl-1H-pyrazol-5-yl)-1H-1,2,4-triazol-5-yl]-1H-indazole-6-carboxamide] | > 33.3 | > 33.3 | 0.49 |
| CCn1nc(C)cc1-c1n[nH]c(-c2cc(C(N)=O)cc3c2cnn3CCN2CCOC3(CCCC3)C2)n1 [YY28, 4-[3-(1-ethyl-3-methyl-1H-pyrazol-5-yl)-1H-1,2,4-triazol-5-yl]-1-[2-(6-oxa-9-azaspiro[4.5]decan-9-yl)ethyl]-1H-indazole-6-carboxamide] | > 33.3 | > 33.3 | 0.142 |
| CCn1nc(C)cc1-c1nc(-c2nc(C(N)=O)cc3c2cnn3C)n(CC(=O)O)n1 [YY29, [5-(6-carbamoyl-1-methyl-1H-pyrazolo[4,3-c]pyridin-4-yl)-3-(1-ethyl-3-methyl-1H-pyrazol-5-yl)-1H-1,2,4-triazol-1-yl]acetic acid] | > 33.3 | > 33.3 | 0.0202 |
| CCn1nc(CO)cc1-c1n[nH]c(-c2nc(C(N)=O)cc3c2cnn3C)n1 [YY30, 4-{3-[1-ethyl-3-(hydroxymethyl)-1H-pyrazol-5-yl]-1H-1,2,4-triazol-5-yl}-1-methyl-1H-pyrazolo[4,3-c]pyridine-6-carboxamide] | > 13.3 | > 33.3 | 0.0416 |
| CCn1nc(C)cc1-c1nc(-c2nc(C(N)=O)cc3c2cnn3C)n(CCCN)n1 [YY31, 4-[1-(3-aminopropyl)-3-(1-ethyl-3-methyl-1H-pyrazol-5-yl)-1H-1,2,4-triazol-5-yl]-1-methyl-1H-pyrazolo[4,3-c]pyridine-6-carboxamide] | > 10 | > 13.3 | 0.157 |
| Cc1nn(CCC(=O)O)c(-c2n[nH]c(-c3nc(C(N)=O)cc4c3cnn4C)n2)c1O [YY32, 3-{5-[5-(6-carbamoyl-1-methyl-1H-pyrazolo[4,3-c]pyridin-4-yl)-1H-1,2,4-triazol-3-yl]-4-hydroxy-3-methyl-1H-pyrazol-1-yl}propanoic acid] | > 11.1 | > 10 | 0.0072 |
| CCn1nc(C)c(O)c1-c1n[nH]c(-c2nc(C(N)=O)cc3c2cnn3CCN2CC(F)C2)n1 [YY33, 4-[3-(1-ethyl-4-hydroxy-3-methyl-1H-pyrazol-5-yl)-1H-1,2,4-triazol-5-yl]-1-[2-(3-fluoroazetidin-1-yl)ethyl]-1H-pyrazolo[4,3-c]pyridine-6-carboxamide] | > 10 | > 11.1 | 0.164 |
| CCn1nc(C)c(O)c1-c1n[nH]c(-c2nc(C(N)=O)cc3c2cnn3CCN2CCOCC2)n1 [YY34, 4-[3-(1-ethyl-4-hydroxy-3-methyl-1H-pyrazol-5-yl)-1H-1,2,4-triazol-5-yl]-1-[2-(morpholin-4-yl)ethyl]-1H-pyrazolo[4,3-c]pyridine-6-carboxamide] | > 10 | > 10 | 0.0842 |
